In US20050038022A1, “Method for treatment of cancer and compositions for use therein” (Unisearch Limited, priority 2001, published 2005):

What was measured:
Solubility in solvent = format: physicochemical
Text: (§1) In order to be able to test ABS, a proper solvent had to be found. […] Therefore to allow direct comparison between the 2 compounds, all subsequent experiments were run using 0.5% DMSO for both ABS and albendazole. In the cell lines examined, albendazole produced very similar results to what we had previously reported for the drug in liver cancer cells.

[1] = system: HepG2, SKHEP-1 and Hep 3B; test: Albendazole/ABS proliferation test, liver cancer cells; format: cell-based, human; conditions: 5 days, 0.5% DMSO
Experimental: as §1
(§2) Both albendazole and ABS were tested side by side against various cell lines as follows: • Liver—HepGZ Hep3B, SKHEP-1 • Colorectal—170, LOVO, HT-29 • Prostate—PC3, LNCap, Du145 • Leukeamic—HL60
(§3) Cells were treated with various concentrations of each compound for a period of 5 days.

PC3, LNCap and Du 145 = test: Albendazole/ABS proliferation test, prostate cancer cells; format: cell-based, human; conditions: PC3, LNCap and Du 145; ABS compared with albendazole
Experimental: as §1, §2, §3

C-170, LOVO and HT-29 = test: Albendazole/ABS proliferation test, colorectal cell lines; format: cell-based; conditions: C-170, LOVO and HT-29, 5 days, 0.5% DMSO
Experimental: as §1, §2, §3

[2] = sulphoxide metabolite after oral albendazole, man; cited from earlier work
[3] = system: liver, colorectal, prostate and leukeamic cell lines; test: Albendazole/ABS side by side in various cell lines (general); format: cell-based
Experimental: as §1, §2
The fist 9 cell lines were used to compare effectiveness and potency while, the last one was used to assess toxicity on bone marrow (as a rough guide).
as §3

CCC[S+]([O-])c1ccc2[nH]c(NC(=O)OC)nc2c1 (stereo not shown) [ABS, albendazole sulphoxide]
solubility in ethanol (Solubility in solvent): not soluble in ethanol | proliferation of human liver cancer cells [1]: inhibit proliferation | potency in inhibiting proliferation, metabolite versus drug (PC3, LNCap and Du 145): almost equipotent | activity against colorectal cell lines (C-170, LOVO and HT-29): same sort of activity | peak plasma concentrations [2]: 200 to 300 ng/mL | plasma half life [2]: 8 to 9 h | antiproliferative activity at 0.25 micromoles/L ([3]; 0.25 micromoles/L, 5 days): dramatically increasing | effectiveness compared with parent drug ([3]; 10 different cell lines, earlier results, latest results cast doubt): as effective as the parent drug | inhibition at 1 µM ([3]; 120 h, 1 micromoles/L, 5 days): ~100% | concentration at which antiproliferative activity becomes evident ([3]; 5 days, 0.5% DMSO, in general): 0.01 µmol/L
